In patent US11939314B2, “Quinolin-2-one derivatives” (MERCK PATENT GMBH, priority 2016, dated 2024):

molecular target: T1, c-Kit(V654A) (Homo sapiens, UniProt P10721, V654A); assay: c-Kit(V654A) assay; assay type: biochemical; conditions: recombinant human c-Kit aa 544-end, 200 μM ATP, 1.4E-06 means 1.4×10^−6, read-out: Inhibition (IC50) of c-KIT (V654A)
T1 construct: amino acids 544-end containing the V654A mutation; GST (N)
Procedure: c-Kit(V654A) (N-terminal GST-tagged, recombinant human c-Kit, amino acids 544-end containing the V654A mutation) is incubated with 8 mM MOPS pH 7.0, 0.2 mM EDTA, 250 μM GGMEDIYEFMGGKKK, 10 mM MgAcetate and [gamma-33P-ATP] (specific activity approx. 500 cpm/pmol, concentration 200 μM). The reaction is initiated by the addition of the MgATP mix. After incubation for 40 minutes at room temperature, the reaction is stopped by the addition of 3% phosphoric acid solution. 10 μL of the reaction is then spotted onto a P30 filtermat and washed three times for 5 minutes in 75 mM phosphoric acid and once in methanol prior to drying and scintillation counting.

T1 sequence (P10721 544-976 V654A): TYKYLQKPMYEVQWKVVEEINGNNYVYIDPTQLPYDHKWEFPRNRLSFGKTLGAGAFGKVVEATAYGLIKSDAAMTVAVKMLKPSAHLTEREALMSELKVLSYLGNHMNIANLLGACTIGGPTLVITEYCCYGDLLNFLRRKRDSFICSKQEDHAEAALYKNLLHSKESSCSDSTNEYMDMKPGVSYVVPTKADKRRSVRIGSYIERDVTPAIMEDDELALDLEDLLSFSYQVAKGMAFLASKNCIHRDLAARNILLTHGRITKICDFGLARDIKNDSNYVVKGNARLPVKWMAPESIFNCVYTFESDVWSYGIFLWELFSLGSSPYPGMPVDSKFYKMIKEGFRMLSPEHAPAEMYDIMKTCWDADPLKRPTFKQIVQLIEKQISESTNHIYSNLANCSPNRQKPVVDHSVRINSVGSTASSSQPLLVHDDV

Question: How did the IC50 turn out when CO[C@@H]1CCN(S(=O)(=O)c2ccc(-n3cc(-c4cc5cc(Cl)ccc5[nH]c4=O)nn3)cc2)C1 [A359, 6-chloro-3-{1-[4-((R)-3-methoxy-pyrrolidine-1-sulfonyl)-phenyl]-1H-[1,2,3]triazol-4-yl}-1H-quinolin-2-one] was run?
Answer: 13 nM

Question: Which IC50 does the source give for CN1CCC(Cc2ccc(-n3cc(-c4cc5cc(Cl)ccc5[nH]c4=O)nn3)cc2)CC1 [A374, 6-chloro-3-{1-[4-(1-methyl-piperidin-4-ylmethyl)-phenyl]-1H-[1,2,3]triazol-4-yl}-1H-quinolin-2-one] here?
Answer: 17 nM

Question: For O=c1[nH]c2ncccc2cc1-c1cn(-c2ccc(CO)cc2)nn1 [A7, 3-[1-(4-hydroxymethyl-phenyl)-1H-[1,2,3]triazol-4-yl]-1H-[1,8]naphthyridin-2-one], which IC50 is on record?
Answer: 490 nM

Question: How did the IC50 turn out when CO[C@H]1CCN(C(=O)c2cc(-n3cc(-c4cc5cc(F)ccc5[nH]c4=O)nn3)cs2)C1 [A350, 6-fluoro-3-{1-[5-((S)-3-methoxy-pyrrolidine-1-carbonyl)-thiophen-3-yl]-1H-[1,2,3]triazol-4-yl}-1H-quinolin-2-one] was run?
Answer: 16 nM

Question: With Cc1c(-c2cn(-c3ccc(C(=O)N4CCOCC4)cc3)nn2)c(=O)[nH]c2ccccc12 [A185, 4-methyl-3-{1-[4-(morpholine-4-carbonyl)-phenyl]-1H-[1,2,3]triazol-4-yl}-1H-quinolin-2-one] as the molecule, how does the IC50 read?
Answer: 510 nM

Question: How did the IC50 turn out when CN1CC[C@@H](Oc2ccc(-n3cc(-c4cc5cc(F)c(F)cc5[nH]c4=O)nn3)cc2)C1 [A373, 6,7-difluoro-3-{1-[4-((R)-1-methyl-pyrrolidin-3-yloxy)-phenyl]-1H-[1,2,3]triazol-4-yl}-1H-quinolin-2-one] was run?
Answer: 15 nM

Question: With CO[C@@H]1CCN(C(=O)c2cc(-n3cc(-c4cc5cc(F)ccc5[nH]c4=O)nn3)cs2)C1 [A351, 6-fluoro-3-{1-[5-((R)-3-methoxy-pyrrolidine-1-carbonyl)-thiophen-3-yl]-1H-[1,2,3]triazol-4-yl}-1H-quinolin-2-one] as the molecule, how does the IC50 read?
Answer: 14 nM

Question: For CO[C@H]1CCN(S(=O)(=O)c2ccc(-n3cc(-c4cc5cc(Cl)ccc5[nH]c4=O)nn3)cc2)C1 [A361, 6-chloro-3-{1-[4-((S)-3-methoxy-pyrrolidine-1-sulfonyl)-phenyl]-1H-[1,2,3]triazol-4-yl}-1H-quinolin-2-one], which IC50 is on record?
Answer: 11 nM

Question: For CN(C)C1CN(C(=O)c2ccc(-n3cc(-c4cc5cc(F)ccc5[nH]c4=O)nn3)cc2)CC1(F)F (stereo not drawn) [A339, 3-{1-[4-(4-dimethylamino-3,3-difluoro-pyrrolidine-1-carbonyl)-phenyl]-1H-[1,2,3]triazol-4-yl}-6-fluoro-1H-quinolin-2-one], which IC50 is on record?
Answer: 9.2 nM

Question: How did the IC50 turn out when CO[C@@H]1CN[C@H](C(=O)N(C)c2ccc(-n3cc(-c4cc5cc(F)ccc5[nH]c4=O)nn3)cc2)C1 [A347, (2S,4S)-4-methoxy-pyrrolidine-2-carboxylic acid {4-[4-(6-fluoro-2-oxo-1,2-dihydro-quinolin-3-yl)-[1,2,3]triazol-1-yl]-phenyl}-methyl-amide] was run?
Answer: 26 nM

Question: For CN1CCC(Oc2ccc(-n3cc(-c4cc5cc(Cl)ccc5[nH]c4=O)nn3)cc2)CC1 [A376, 6-chloro-3-{1-[4-(1-methyl-piperidin-4-yloxy)-phenyl]-1H-[1,2,3]triazol-4-yl}-1H-quinolin-2-one], which IC50 is on record?
Answer: 4.9 nM

Question: Which IC50 does the source give for CO[C@@H](C)C(=O)N(C)c1ccc(-n2cc(-c3cc4cc(F)ccc4[nH]c3=O)nn2)cc1 [A348, (S)—N-{4-[4-(6-fluoro-2-oxo-1,2-dihydro-quinolin-3-yl)-[1,2,3]triazol-1-yl]-phenyl}-2-methoxy-N-methyl-propionamide] here?
Answer: 16 nM

Question: How did the IC50 turn out when CS(=O)(=O)[C@@H]1CCN(C(=O)c2ccc(-n3cc(-c4cc5cc(F)ccc5[nH]c4=O)nn3)cc2)C1 [A282, 6-fluoro-3-{1-[4-((R)-3-methanesulfonyl-pyrrolidine-1-carbonyl)-phenyl]-1H-[1,2,3]triazol-4-yl}-1H-quinolin-2-one] was run?
Answer: 16 nM

Question: CN1CCC(C(=O)N(C)c2ccc(-n3cc(-c4cc5cc(F)ccc5[nH]c4=O)nn3)cc2)CC1 [A349, 1-methyl-piperidine-4-carboxylic acid {4-[4-(6-fluoro-2-oxo-1,2-dihydro-quinolin-3-yl)-[1,2,3]triazol-1-yl]-phenyl}-methyl-amide] was tested. Which IC50 did it give?
Answer: 51 nM

Question: Which IC50 does the source give for CN1CCN(CC2CCCN2C(=O)c2ccc(-n3cc(-c4cc5cc(F)ccc5[nH]c4=O)nn3)cc2)CC1 (stereo not drawn) [A287, 6-fluoro-3-(1-{4-[2-(4-methyl-piperazin-1-ylmethyl)-pyrrolidine-1-carbonyl]-phenyl}-1H-[1,2,3]triazol-4-yl)-1H-quinolin-2-one] here?
Answer: 25 nM

Question: For CC1CCCN1C(=O)c1ccc(-n2cc(-c3cc4cc(F)ccc4[nH]c3=O)nn2)cc1 (stereo not drawn) [A288, 6-fluoro-3-{1-[4-(2-methyl-pyrrolidine-1-carbonyl)-phenyl]-1H-[1,2,3]triazol-4-yl}-1H-quinolin-2-one], which IC50 is on record?
Answer: 6.5 nM

Question: How did the IC50 turn out when CO[C@H]1CCN(S(=O)(=O)c2ccc(-n3cc(-c4cc5cc(F)ccc5[nH]c4=O)nn3)cc2)C1 [A360, 6-fluoro-3-{1-[4-((S)-3-methoxy-pyrrolidine-1-sulfonyl)-phenyl]-1H-[1,2,3]triazol-4-yl}-1H-quinolin-2-one] was run?
Answer: 22 nM

Question: How did the IC50 turn out when O=c1[nH]c2ccc(F)cc2cc1-c1cn(-c2ccc(OC3CCCC3)cc2)nn1 [A364, 3-[1-(4-cyclopentyloxy-phenyl)-1H-[1,2,3]triazol-4-yl]-6-fluoro-1H-quinolin-2-one] was run?
Answer: 21 nM

Question: With CN1CCN(C(=O)c2ccc(-n3cc(-c4cc5cc(Cl)ccc5[nH]c4=O)cn3)cc2)CC1 [A305, 6-chloro-3-{1-[4-(4-methyl-piperazine-1-carbonyl)-phenyl]-1H-pyrazol-4-yl}-1H-quinolin-2-one] as the molecule, how does the IC50 read?
Answer: 7.7 nM

Question: For CS(=O)(=O)CC1CCN(C(=O)c2ccc(-n3cc(-c4cc5cc(F)ccc5[nH]c4=O)nn3)cc2)C1 (stereo not drawn) [A284, 6-fluoro-3-{1-[4-(3-methanesulfonylmethyl-pyrrolidine-1-carbonyl)-phenyl]-1H-[1,2,3]triazol-4-yl}-1H-quinolin-2-one], which IC50 is on record?
Answer: 17 nM

Question: For O=c1[nH]c2ncccc2cc1-c1cn(-c2ccccc2)nn1 [A6, 3-(1-phenyl-1H-[1,2,3]triazol-4-yl)-1H-[1,8]naphthyridin-2-one], which IC50 is on record?
Answer: 430 nM

Question: For CN1CC2(CCN(C(=O)c3ccc(-n4cc(-c5cc6cc(Cl)ccc6[nH]c5=O)nn4)cc3)C2)C1 [A290, 6-chloro-3-{1-[4-(2-methyl-2,6-diaza-spiro[3.4]octane-6-carbonyl)-phenyl]-1H-[1,2,3]triazol-4-yl}-1H-quinolin-2-one], which IC50 is on record?
Answer: 14 nM

Question: With CN1CC2(CCN(C(=O)c3ccc(-n4cc(-c5cc6cc(F)ccc6[nH]c5=O)nn4)cc3)C2)C1 [A289, 6-fluoro-3-{1-[4-(2-methyl-2,6-diaza-spiro[3.4]octane-6-carbonyl)-phenyl]-1H-[1,2,3]triazol-4-yl}-1H-quinolin-2-one] as the molecule, how does the IC50 read?
Answer: 25 nM

Question: For CS(=O)(=O)[C@H]1CCN(C(=O)c2ccc(-n3cc(-c4cc5cc(F)ccc5[nH]c4=O)nn3)cc2)C1 [A283, 6-fluoro-3-{1-[4-((S)-3-methanesulfonyl-pyrrolidine-1-carbonyl)-phenyl]-1H-[1,2,3]triazol-4-yl}-1H-quinolin-2-one], which IC50 is on record?
Answer: 19 nM

Question: CN1C[C@H]2CCN(C(=O)c3ccc(-n4cc(-c5cc6cc(F)ccc6[nH]c5=O)nn4)cc3)[C@H]2C1 [A291, 6-fluoro-3-{1-[4-((3aR,6aR)-5-methyl-hexahydro-pyrrolo[3,4-b]pyrrole-1-carbonyl)-phenyl]-1H-[1,2,3]triazol-4-yl}-1H-quinolin-2-one] was tested. Which IC50 did it give?
Answer: 7.5 nM

Question: Which IC50 does the source give for CN1CCC(Oc2ccc(-n3cc(-c4cc5cc(F)ccc5[nH]c4=O)nn3)cc2)CC1 [A375, 6-fluoro-3-{1-[4-(1-methyl-piperidin-4-yloxy)-phenyl]-1H-[1,2,3]triazol-4-yl}-1H-quinolin-2-one] here?
Answer: 9.5 nM

Question: Which IC50 does the source give for CO[C@@H]1CCC[C@H]1Oc1ccc(-n2cc(-c3cc4cc(F)ccc4[nH]c3=O)nn2)cc1 [A362, 6-fluoro-3-{1-[4-((1S,25)-2-methoxy-cyclopentyloxy)-phenyl]-1H-[1,2,3]triazol-4-yl}-1H-quinolin-2-one] here?
Answer: 16 nM

Question: For CN1CCN(C(=O)c2ccc(-n3cc(-c4cc5cc(F)c(F)cc5[nH]c4=O)cn3)cc2)CC1 [A304, 6,7-difluoro-3-{1-[4-(4-methyl-piperazine-1-carbonyl)-phenyl]-1H-pyrazol-4-yl}-1H-quinolin-2-one], which IC50 is on record?
Answer: 16 nM

Question: With CN1CC[C@H](Oc2ccc(-n3cc(-c4cc5cc(F)c(F)cc5[nH]c4=O)nn3)cc2)C1 [A372, 6,7-difluoro-3-{1-[4-((S)-1-methyl-pyrrolidin-3-yloxy)-phenyl]-1H-[1,2,3]triazol-4-yl}-1H-quinolin-2-one] as the molecule, how does the IC50 read?
Answer: 21 nM

Question: How did the IC50 turn out when CO[C@H](C)C(=O)N(C)c1ccc(-n2cc(-c3cc4cc(F)ccc4[nH]c3=O)nn2)cc1 [A346, (R)—N-{4-[4-(6-fluoro-2-oxo-1,2-dihydro-quinolin-3-yl)-[1,2,3]triazol-1-yl]-phenyl}-2-methoxy-N-methyl-propionamide] was run?
Answer: 16 nM

Question: Cn1cc(C2CCCN2C(=O)c2ccc(-n3cc(-c4cc5cc(F)ccc5[nH]c4=O)nn3)cc2)cn1 (stereo not drawn) [A285, 6-fluoro-3-(1-{4-[2-(1-methyl-1H-pyrazol-4-yl)-pyrrolidine-1-carbonyl]-phenyl}-1H-[1,2,3]triazol-4-yl)-1H-quinolin-2-one] was tested. Which IC50 did it give?
Answer: 5.6 nM

Question: CO[C@@H]1CCN(S(=O)(=O)c2ccc(-n3cc(-c4cc5cc(F)ccc5[nH]c4=O)nn3)cc2)C1 [A358, 6-fluoro-3-{1-[4-((R)-3-methoxy-pyrrolidine-1-sulfonyl)-phenyl]-1H-[1,2,3]triazol-4-yl}-1H-quinolin-2-one] was tested. Which IC50 did it give?
Answer: 19 nM

Question: O=C(c1ccc(-n2cc(-c3cc4cc(F)ccc4[nH]c3=O)nn2)cc1)N1CCCC1c1cccnc1 (stereo not drawn) [A286, 6-fluoro-3-{1-[4-(2-pyridin-3-yl-pyrrolidine-1-carbonyl)-phenyl]-1H-[1,2,3]triazol-4-yl}-1H-quinolin-2-one] was tested. Which IC50 did it give?
Answer: 5.1 nM
